Experimental data reported in paper PMC8698299, “Targeting Mycobacterial F-ATP Synthase C-Terminal α Subunit Interaction Motif on Rotary Subunit γ” (Antibiotics, 2021).

Target: T1, F-ATP synthase (subunit γ, site proposed by docking) (Mycolicibacterium smegmatis, UniProt A0R201)
T1 construct: gene atpG; Recombinant M. smegmatis WT F-ATP synthase, purified and reconstituted into proteoliposomes; with other F-ATP synthase subunits (α3:β3:γ:δ:ε:a:b:b’:c9), in particular subunit α
Assay: ATP synthesis by reconstituted recombinant MsF-ATP synthase, continuous luciferase assay (also IMV ATP synthesis, IC50 […])
Type: biochemical

T1 sequence (A0R201 2-307): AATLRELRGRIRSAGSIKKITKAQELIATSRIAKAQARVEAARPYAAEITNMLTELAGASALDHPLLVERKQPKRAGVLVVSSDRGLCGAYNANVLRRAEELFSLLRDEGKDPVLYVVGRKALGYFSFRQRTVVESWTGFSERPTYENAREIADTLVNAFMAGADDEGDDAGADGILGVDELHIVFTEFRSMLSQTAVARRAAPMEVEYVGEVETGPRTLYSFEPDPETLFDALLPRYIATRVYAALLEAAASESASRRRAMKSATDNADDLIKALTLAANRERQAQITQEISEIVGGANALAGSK

Question: `COc1cc(NC(=O)C2=C(C)OCCS2)c(Cl)cc1C(=O)NCCCN1CCCC1=O` [AlMF1, N-(2-chloro-5-methoxy-4-((3-(2-oxopyrrolidin-1-yl)propyl)carbamoyl)phenyl)-2-methyl-5,6-dihydro-1,4-oxathiine-3-carboxamide] was tested. Which inhibition at 50 µM did it give?
Answer: 71%
